# Read-outs that look alike come from different tables or passages of the source.
# Legend:
# [1] = molecular target: T1, JAK1 (Homo sapiens, UniProt P23458); assay: Enzymatic Caliper Mobility Shift Assay, ATP at Km; type: biochemical
# T1 construct: ChemPartner (contract assay service)
# Excerpt: (§1) The assay protocol guides are commercially available from ChemPartner.
# [2] = molecular target: T2, JAK2 (Homo sapiens, UniProt O60674); assay: Enzymatic Caliper Mobility Shift Assay, ATP at Km; type: biochemical
# T2 construct: ChemPartner (contract assay service)
# T2 sequence (O60674 whole entry): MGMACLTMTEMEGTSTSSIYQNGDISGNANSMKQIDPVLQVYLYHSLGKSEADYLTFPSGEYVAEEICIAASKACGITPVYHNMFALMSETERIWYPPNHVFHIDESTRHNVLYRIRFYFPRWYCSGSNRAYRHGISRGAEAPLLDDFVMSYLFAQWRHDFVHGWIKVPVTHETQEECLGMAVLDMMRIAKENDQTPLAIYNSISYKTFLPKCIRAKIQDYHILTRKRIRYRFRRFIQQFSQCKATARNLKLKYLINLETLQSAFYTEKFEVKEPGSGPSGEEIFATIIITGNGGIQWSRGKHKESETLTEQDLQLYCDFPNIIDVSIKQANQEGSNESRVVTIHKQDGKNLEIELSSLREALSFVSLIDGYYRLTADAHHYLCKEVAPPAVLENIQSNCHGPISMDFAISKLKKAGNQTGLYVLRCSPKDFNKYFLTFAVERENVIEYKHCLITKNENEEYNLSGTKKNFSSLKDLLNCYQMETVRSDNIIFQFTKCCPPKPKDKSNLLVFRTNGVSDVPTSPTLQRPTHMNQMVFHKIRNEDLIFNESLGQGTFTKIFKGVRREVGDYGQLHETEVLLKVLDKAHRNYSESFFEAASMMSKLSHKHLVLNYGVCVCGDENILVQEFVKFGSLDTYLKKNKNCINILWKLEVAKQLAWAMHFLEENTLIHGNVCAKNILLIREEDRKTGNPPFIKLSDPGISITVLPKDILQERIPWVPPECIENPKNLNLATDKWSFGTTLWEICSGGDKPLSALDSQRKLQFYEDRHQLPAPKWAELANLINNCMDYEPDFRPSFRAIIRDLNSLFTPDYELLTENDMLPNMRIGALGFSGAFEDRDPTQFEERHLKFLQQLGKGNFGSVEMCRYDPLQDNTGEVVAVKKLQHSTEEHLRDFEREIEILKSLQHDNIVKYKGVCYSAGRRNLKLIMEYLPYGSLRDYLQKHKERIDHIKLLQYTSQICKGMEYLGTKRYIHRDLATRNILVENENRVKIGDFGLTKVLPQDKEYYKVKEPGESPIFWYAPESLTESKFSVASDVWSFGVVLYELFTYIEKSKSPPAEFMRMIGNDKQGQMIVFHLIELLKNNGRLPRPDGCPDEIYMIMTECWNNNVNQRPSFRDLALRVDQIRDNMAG
# Excerpt: as §1
# [3] = molecular target: T3, JAK3 (Homo sapiens, UniProt P52333); assay: Enzymatic Caliper Mobility Shift Assay, ATP at Km; type: biochemical
# T3 construct: ChemPartner (contract assay service)
# T3 sequence (P52333 1-1124): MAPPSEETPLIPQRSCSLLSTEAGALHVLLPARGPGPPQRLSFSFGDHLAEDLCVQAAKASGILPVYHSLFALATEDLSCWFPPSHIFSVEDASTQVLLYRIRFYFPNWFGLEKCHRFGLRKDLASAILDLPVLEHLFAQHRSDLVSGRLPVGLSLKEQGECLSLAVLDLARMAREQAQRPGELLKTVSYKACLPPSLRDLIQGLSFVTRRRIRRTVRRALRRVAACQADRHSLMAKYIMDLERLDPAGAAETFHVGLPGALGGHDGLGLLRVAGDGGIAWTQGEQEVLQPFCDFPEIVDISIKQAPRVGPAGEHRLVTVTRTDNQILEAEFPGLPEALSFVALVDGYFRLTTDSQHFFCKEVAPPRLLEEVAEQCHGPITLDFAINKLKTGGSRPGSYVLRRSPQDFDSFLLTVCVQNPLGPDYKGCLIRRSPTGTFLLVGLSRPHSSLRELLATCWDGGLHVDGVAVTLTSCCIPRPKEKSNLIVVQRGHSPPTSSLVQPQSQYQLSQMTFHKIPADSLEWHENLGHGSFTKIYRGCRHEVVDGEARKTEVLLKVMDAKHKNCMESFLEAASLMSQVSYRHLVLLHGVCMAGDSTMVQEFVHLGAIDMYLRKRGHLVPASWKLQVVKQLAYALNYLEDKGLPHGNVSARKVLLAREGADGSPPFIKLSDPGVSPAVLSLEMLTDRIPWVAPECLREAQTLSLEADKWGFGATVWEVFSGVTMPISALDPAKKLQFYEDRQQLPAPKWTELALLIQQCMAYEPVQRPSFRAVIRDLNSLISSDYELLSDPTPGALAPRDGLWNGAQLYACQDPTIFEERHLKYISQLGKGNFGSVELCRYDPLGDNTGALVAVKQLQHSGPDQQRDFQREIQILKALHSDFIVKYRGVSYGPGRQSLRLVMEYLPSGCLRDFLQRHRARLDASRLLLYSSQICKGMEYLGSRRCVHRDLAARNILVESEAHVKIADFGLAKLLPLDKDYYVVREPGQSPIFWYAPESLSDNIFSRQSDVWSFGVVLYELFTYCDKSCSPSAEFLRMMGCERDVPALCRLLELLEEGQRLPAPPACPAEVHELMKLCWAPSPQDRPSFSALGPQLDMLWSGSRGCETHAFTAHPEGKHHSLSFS
# Excerpt: as §1
# [4] = molecular target: TYK2 (Homo sapiens, UniProt P29597); assay: Enzymatic Caliper Mobility Shift Assay, ATP at Km; type: biochemical
# Sequence of TYK2 (P29597 whole entry): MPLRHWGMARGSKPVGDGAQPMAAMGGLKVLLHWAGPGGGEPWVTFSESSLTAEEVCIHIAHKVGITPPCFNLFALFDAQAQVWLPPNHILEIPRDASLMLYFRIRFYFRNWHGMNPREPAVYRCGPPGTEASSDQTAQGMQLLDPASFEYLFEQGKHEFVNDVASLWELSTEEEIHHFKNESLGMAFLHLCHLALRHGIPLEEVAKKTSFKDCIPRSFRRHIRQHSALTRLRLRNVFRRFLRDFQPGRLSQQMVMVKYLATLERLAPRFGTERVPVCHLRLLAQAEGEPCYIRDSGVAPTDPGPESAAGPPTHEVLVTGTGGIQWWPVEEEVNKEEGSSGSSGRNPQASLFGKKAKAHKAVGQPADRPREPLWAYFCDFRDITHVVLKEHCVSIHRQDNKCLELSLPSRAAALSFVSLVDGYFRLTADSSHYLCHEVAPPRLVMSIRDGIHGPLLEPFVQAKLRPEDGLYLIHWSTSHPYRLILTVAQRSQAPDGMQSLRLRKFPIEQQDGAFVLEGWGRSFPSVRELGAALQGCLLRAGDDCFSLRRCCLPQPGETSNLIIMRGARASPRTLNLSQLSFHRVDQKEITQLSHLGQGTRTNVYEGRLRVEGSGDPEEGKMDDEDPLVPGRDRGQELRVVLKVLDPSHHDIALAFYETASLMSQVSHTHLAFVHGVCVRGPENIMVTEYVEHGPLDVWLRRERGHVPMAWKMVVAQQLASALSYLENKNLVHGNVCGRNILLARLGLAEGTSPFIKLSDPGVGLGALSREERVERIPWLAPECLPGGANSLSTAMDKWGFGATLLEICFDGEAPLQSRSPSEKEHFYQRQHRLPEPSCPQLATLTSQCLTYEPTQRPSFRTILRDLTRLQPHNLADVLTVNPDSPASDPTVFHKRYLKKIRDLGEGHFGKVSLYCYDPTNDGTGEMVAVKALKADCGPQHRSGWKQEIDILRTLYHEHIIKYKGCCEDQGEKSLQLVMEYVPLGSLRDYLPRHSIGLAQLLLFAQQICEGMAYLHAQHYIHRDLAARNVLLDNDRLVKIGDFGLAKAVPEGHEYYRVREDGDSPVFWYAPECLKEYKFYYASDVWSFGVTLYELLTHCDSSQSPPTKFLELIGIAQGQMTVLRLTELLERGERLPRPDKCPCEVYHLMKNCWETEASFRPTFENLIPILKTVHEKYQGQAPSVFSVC
# Excerpt: as §1
# [5] = molecular target: T4, BTK (Homo sapiens, UniProt Q06187); assay: Cys-containing kinase family panel (EurofinsCerep); type: biochemical
# T4 construct: EurofinsCerep (contract assay service)
# [6] = molecular target: T5, ITK (Homo sapiens, UniProt Q08881); assay: Cys-containing kinase family panel (EurofinsCerep); type: biochemical
# T5 construct: EurofinsCerep (contract assay service)
# [7] = molecular target: T6, BLK (Homo sapiens, UniProt P51451); assay: Cys-containing kinase family panel (EurofinsCerep); type: biochemical
# T6 construct: EurofinsCerep (contract assay service)
# T6 sequence (P51451 whole entry): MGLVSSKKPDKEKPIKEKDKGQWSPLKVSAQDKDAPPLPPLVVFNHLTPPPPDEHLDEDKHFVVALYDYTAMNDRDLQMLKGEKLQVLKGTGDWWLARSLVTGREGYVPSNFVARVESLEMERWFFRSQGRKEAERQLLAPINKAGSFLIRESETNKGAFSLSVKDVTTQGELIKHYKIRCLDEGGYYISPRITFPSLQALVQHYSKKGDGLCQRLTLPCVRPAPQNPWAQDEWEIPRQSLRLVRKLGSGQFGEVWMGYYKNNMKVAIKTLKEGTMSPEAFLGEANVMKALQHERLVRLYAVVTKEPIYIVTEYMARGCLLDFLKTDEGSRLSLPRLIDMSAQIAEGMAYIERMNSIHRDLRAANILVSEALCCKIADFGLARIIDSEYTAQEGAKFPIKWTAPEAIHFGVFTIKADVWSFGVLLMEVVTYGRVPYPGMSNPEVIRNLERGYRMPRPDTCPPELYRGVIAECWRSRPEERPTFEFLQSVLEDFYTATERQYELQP
# [8] = molecular target: T7, IGF-1R (Homo sapiens, UniProt P08069); assay: Eurofins Kinase Profiler panel; type: biochemical; conditions: read-out: % inhibition (1μM), DMSO control=100%, lower=stronger
# T7 construct: purchased Eurofins KinaseProfiler (Eurofins Pharma Discovery Services UK, Dundee); JAK3 also ChemPartner
# [9] = molecular target: T8, KDR (Homo sapiens, UniProt P35968); assay: Eurofins Kinase Profiler panel; type: biochemical; conditions: read-out: % inhibition (1μM), DMSO control=100%, lower=stronger
# T8 construct: purchased Eurofins KinaseProfiler (Eurofins Pharma Discovery Services UK, Dundee); JAK3 also ChemPartner
# [10] = molecular target: T9, Lck (Homo sapiens, UniProt P06239); assay: Eurofins Kinase Profiler panel; type: biochemical; conditions: read-out: % inhibition (1μM), DMSO control=100%, lower=stronger
# T9 construct: purchased Eurofins KinaseProfiler (Eurofins Pharma Discovery Services UK, Dundee); JAK3 also ChemPartner
# [11] = molecular target: T10, MST1 (Homo sapiens, UniProt Q13043); assay: Eurofins Kinase Profiler panel; type: biochemical; conditions: read-out: % inhibition (1μM), DMSO control=100%, lower=stronger
# T10 construct: purchased Eurofins Pharma Discovery Services UK Limited (Kinase Profiler screening platform)
# T10 sequence (Q13043 whole entry): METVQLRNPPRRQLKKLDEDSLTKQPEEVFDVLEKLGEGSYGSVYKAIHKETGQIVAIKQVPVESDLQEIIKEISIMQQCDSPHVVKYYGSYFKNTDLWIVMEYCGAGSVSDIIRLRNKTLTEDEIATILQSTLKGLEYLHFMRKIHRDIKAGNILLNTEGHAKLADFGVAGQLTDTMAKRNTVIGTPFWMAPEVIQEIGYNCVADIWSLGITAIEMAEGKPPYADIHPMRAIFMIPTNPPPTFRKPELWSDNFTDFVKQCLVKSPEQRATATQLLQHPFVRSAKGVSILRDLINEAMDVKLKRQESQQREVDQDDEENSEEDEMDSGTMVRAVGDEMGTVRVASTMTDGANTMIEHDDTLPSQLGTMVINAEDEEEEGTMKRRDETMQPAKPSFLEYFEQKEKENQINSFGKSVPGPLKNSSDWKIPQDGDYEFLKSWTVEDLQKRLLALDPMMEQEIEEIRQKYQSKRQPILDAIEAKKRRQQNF
# [12] = molecular target: T11, Fyn (Homo sapiens, UniProt P06241); assay: Eurofins Kinase Profiler panel; type: biochemical; conditions: read-out: % inhibition (1μM), DMSO control=100%, lower=stronger
# T11 construct: purchased Eurofins Pharma Discovery Services UK Limited (Kinase Profiler screening platform)
# T11 sequence (P06241 whole entry): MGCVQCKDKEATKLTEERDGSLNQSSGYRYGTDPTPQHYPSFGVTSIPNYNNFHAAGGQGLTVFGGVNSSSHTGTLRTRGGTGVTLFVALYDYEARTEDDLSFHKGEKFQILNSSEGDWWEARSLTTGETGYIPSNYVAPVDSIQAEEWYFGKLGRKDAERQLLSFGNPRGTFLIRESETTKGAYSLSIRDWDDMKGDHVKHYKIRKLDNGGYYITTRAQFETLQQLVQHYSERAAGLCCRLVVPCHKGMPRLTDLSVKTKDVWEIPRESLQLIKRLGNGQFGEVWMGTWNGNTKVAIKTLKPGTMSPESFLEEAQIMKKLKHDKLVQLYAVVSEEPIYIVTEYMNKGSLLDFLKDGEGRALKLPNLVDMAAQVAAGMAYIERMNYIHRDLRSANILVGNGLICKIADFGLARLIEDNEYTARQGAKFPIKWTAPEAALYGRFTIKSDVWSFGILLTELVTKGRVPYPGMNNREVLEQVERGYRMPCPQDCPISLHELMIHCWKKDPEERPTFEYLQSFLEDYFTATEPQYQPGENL
# [13] = molecular target: T12, GCK (Homo sapiens, UniProt Q12851); assay: Eurofins Kinase Profiler panel; type: biochemical; conditions: read-out: % inhibition (1μM), DMSO control=100%, lower=stronger
# T12 construct: purchased Eurofins Pharma Discovery Services UK Limited (Kinase Profiler screening platform)
# [14] = system: IL-6-induced STAT3 phosphorylation (JAK1); assay: IL-6-induced pSTAT3 in total lymphocytes in hPBMCs, flow cytometry; type: cell-based, human
# [15] = system: GM-CSF-induced STAT5 phosphorylation (JAK2); assay: GM-CSF-induced pSTAT5 in total lymphocytes in hPBMCs, flow cytometry; type: cell-based; conditions: Homo sapiens, Lymphocyte, hPBMC total lymphocytes, trigger GM-CSF, readout pSTAT5
# [16] = system: JAK-STAT pathway in joints of CIA mice; assay: JAK/STAT phosphorylation in joint tissue of CIA mice, Western blot; type: in vivo, mouse; conditions: dose-dependent
# Excerpt: Proteins were visualized with enhanced chemiluminescence.
# [17] = system: Th1, Th17 and Treg cells of CIA mice; assay: Flow cytometry analysis of Th1, Th17 and Treg in CIA mice; type: in vivo, mouse; conditions: 100 mg/kg
# Description: On day 32 after the indicated treatments, mice were sacrificed to obtain cells from the spleen. Then, the cells were incubated with the corresponding antibodies to detect Th1, Th17 cells and Treg cells. CD4^+ IFN-γ^+ represents Th1 cells, CD4^+ IL-17^+ represents Th17 cells in […]. CD4^+ Foxp3^+ represents Treg cells. The analyses of cells were performed as described above.
# [18] = system: IL-3-induced JAK/STAT5 phosphorylation in TF-1 cells (JAK2); assay: STAT5 phosphorylation induced by IL-3 in TF-1 cells, Western blot
# [19] = system: IL-4-induced JAK/STAT6 phosphorylation in THP-1 cells (JAK1/JAK3); assay: STAT6 phosphorylation induced by IL-4 in THP-1 cells, Western blot; conditions: for IC50: Homo sapiens
# T1 sequence (P23458 whole entry): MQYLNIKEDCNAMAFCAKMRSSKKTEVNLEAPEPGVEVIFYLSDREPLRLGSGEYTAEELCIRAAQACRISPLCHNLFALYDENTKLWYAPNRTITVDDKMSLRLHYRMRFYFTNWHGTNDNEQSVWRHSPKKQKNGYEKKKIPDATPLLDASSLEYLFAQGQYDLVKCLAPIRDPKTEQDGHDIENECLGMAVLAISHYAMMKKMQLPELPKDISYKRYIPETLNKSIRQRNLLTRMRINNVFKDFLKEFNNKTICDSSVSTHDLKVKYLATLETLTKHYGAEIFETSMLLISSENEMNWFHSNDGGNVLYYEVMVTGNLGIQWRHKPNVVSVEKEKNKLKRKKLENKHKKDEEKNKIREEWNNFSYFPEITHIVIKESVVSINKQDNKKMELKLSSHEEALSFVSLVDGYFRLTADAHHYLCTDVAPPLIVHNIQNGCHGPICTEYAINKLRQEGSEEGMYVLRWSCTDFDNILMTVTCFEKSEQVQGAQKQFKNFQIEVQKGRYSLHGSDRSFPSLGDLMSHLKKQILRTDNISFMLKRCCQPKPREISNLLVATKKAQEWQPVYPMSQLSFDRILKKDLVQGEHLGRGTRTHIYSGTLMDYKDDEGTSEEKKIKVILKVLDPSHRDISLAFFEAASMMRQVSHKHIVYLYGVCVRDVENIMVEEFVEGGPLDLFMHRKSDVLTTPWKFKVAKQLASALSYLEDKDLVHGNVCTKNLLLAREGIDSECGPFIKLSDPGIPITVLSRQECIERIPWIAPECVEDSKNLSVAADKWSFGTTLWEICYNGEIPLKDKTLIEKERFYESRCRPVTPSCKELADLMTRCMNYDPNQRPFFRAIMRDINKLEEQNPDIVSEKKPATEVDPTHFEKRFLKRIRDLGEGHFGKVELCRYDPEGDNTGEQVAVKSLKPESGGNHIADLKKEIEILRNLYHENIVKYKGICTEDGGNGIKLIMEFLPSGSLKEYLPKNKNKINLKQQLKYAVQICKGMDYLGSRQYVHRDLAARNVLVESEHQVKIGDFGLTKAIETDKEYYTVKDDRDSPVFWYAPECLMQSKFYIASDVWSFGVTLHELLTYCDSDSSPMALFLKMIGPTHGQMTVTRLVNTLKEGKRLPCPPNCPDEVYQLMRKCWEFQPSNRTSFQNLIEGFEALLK
smiles,measurement,setting,value
C=CC(=O)N[C@@H]1CCCN(c2ncnc3[nH]ccc23)C1 [RB1],IC50,[1],> 5 µM
same,inhibition of JAK1,[1]; at concentrations up to 5 µM,did not inhibit
same,IC50,[2],> 5 µM
same,inhibition of JAK2,[2]; at concentrations up to 5 µM,did not inhibit
same,IC50,[3],0.04 µM
same,"preference for JAK3 above JAK2, JAK1 and TYK2",[3]; kinase assay,over 100 fold
same,IC50,"[4]; TYK2, ATP 16.0 μM (Km)",> 5 µM
same,inhibition of TYK2,[4]; at concentrations up to 5 µM,did not inhibit
same,inhibition at 1 µM,[5],-0.95%
same,inhibition at 1 µM,[6],-5.9%
same,inhibition at 1 µM,[7],8.35%
same,activity at 1 µM,[8],93%
same,activity at 1 µM,[9],96%
same,activity at 1 µM,[10],80%
same,activity at 1 µM,[11],83%
same,activity at 1 µM,[12],97%
same,activity at 1 µM,[13],80%
same,IC50,"[14]; Homo sapiens, Lymphocyte, hPBMC total lymphocytes, trigger IL-6, readout pSTAT3, JAK1",> 40 µM
same,Selectivity JAK1/JAK3,"[14]; hPBMC, IL-6 pSTAT3 over IL-2 pSTAT5",>400 fold
same,IC50,[15],> 10 µM
same,phosphorylation status of JAKs and STATs in joint tissue,[16],"hypo-phosphorylation of JAK3, STAT1 and STAT3"
same,percentage of Treg cells,[17]; model 0.55%,1.13%
same,Th1 cells,"[17]; model 1.12%, normal […]",0.49%
same,percentage of Th17 cells,[17]; model 2.13%,0.80%
same,IC50,[18]; Homo sapiens,> 50 µM
same,Selectivity JAK2/JAK3,"[18]; IL-3, pSTAT5",> 1000
same,IC50,"[19]; THP-1, read-out: IC50 (nM) JAK1",> 50000 nM
same,IC50,"[19]; THP-1, read-out: IC50 (nM) JAK3",53.1 nM
same,inhibition of JAK3 phosphorylation compared with JAK1/JAK2-mediated STATs phosphorylation,[19]; IL-4 cell-based assay in THP-1 cells,over 1000 folds
same,Selectivity JAK1/JAK3,"[19]; THP-1, IL-4, pSTAT6",> 1000
same,selectivity for JAK3 activity over JAK1 or JAK2,[19]; battery of cytokine-stimulated cell-based assays,> 100 fold
